Among the data in patent US9561228B2 (Celgene Avilomics Research, Inc., priority 2013, dated 2017) are IC50 values, retold here.

In the test the target is T1, MEK1 activated ERK1 (Homo sapiens, UniProt P27361).
T1 construct: purchased Millipore (Billerica, Mass.) 14-439-K
T1 sequence (P27361 whole entry): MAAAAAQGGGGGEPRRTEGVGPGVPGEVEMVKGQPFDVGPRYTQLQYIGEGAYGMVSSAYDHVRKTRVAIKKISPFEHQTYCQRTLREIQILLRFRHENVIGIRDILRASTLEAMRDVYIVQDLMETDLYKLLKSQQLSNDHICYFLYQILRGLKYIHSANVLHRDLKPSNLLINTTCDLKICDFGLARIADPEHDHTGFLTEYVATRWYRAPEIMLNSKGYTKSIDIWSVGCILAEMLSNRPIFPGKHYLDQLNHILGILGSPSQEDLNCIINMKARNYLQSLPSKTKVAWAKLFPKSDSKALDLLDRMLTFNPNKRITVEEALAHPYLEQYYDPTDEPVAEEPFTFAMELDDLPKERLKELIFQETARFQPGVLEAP
As to the kind of experiment: Omnia continuous-read kinase assay for potency against MEK1 activated ERK1. It counts as biochemical. The conditions noted are these: MEK1 activated ERK1, ATP at KM; read-out: ERK1 Omnia WT ATP KM IC50. From the text:
Omnia Assay Protocol for Potency Assessment Against MEK1 Activated ERK1:
The protocol below describes continuous-read kinase assays to measure potency of compounds against activated ERK1 enzyme. The mechanics of the assay platform are best described by the vendor (Invitrogen, Carlsbad, Calif.) on their website at the following URL: invitrogen.com/site/us/en/home.html.
Briefly, a 1.25× stock of ERK1 enzyme (14-439-K) from Millipore (Billerica, Mass.), 5×ATP (AS001A) and ST17-Sox conjugated peptide substrate (KNZ1171C) were prepared in 1× kinase reaction buffer consisting of 20 mM Tris, pH 7.5, 5 mM MgCl2, 1 mM EGTA, 5 mM β-glycerophosphate, 5% glycerol (10× stock, KB002A) and 0.2 mM DTT. 10 μL of ATP/ST17-sox peptide substrate mix was combined with 0.5 μL volume of 100% DMSO and serially diluted compounds were prepared in 100% DMSO in a Corning (#3574) 384-well, white, non-binding surface microtiter plate (Corning, N.Y.). Kinase reactions were started with the addition of 40 μL of ERK1 solution and monitored every 71 seconds for 30-240 minutes at λex360/λem485 in a Synergy plate reader from BioTek (Winooski, Vt.). At the conclusion of each assay, progress curves from each well were examined for linear reaction kinetics and fit statistics (R^2, 95% confidence interval, absolute sum of squares). Initial velocity (0 minutes to ˜30+ minutes) from each reaction was determined from the slope of a plot of relative fluorescence units vs time (minutes or seconds) and then plotted against inhibitor concentration to estimate ^AppIC50 from log [Inhibitor] vs Response, Variable Slope model in GraphPad Prism from GraphPad Software (San Diego, Calif.).
[Reagent] used in optimized protocol:
[ERK1]=4 nM, [ATP]=50 μM, [ST17-Sox]=10 μM (ATP ^appKM 48 μM)
The results of this assay show the degree of inhibition of ERK activity, which is a direct measurement of inhibition of ERK activity. Results from this assay are reported in Table A under the column “ERK1 Omnia WT ATP KM IC50 (nM).”
For `C=CC(=O)Nc1ccccc1Nc1nc(N[C@@H]2CCC[C@H](C(=O)NOC)C2)ncc1C(F)(F)F` (racemic) [Compound I-3, Rac-cis-3-((4-((2-acrylamidophenyl)amino)-5-(trifluoromethyl)pyrimidin-2-yl)amino)-N-methoxycyclohexanecarboxamide], the half-maximal inhibitory concentration (IC50) (in general, the concentration at which inhibition is half-maximal) is 101 to 500 nM.
With `C=CC(=O)Nc1ccccc1Nc1nc(N[C@@H]2CCC[C@H](C(=O)NOCCO)C2)ncc1C(F)(F)F` (racemic) [Compound I-4, Rac-cis-3-((4-((2-acrylamidophenyl)amino)-5-(trifluoromethyl)pyrimidin-2-yl)amino)-N-(2-hydroxyethoxyl)cyclohexanecarboxamide] the figure was 101 to 500 nM; with `C=CC(=O)Nc1ccccc1Nc1nc(N[C@@H]2CCC[C@H](C(=O)NOC)C2)ncc1Cl` (racemic) [Compound I-203, Rac-cis-3-((4-((2-acrylamidophenyl)amino)-5-chloropyrimidin-2-yl)amino)-N-methoxycyclohexanecarboxamide], 101 to 500 nM; with `C=CC(=O)N[C@@H]1CCCC[C@H]1Nc1nc(Nc2cc(C(=O)NOCCO)ccc2C)ncc1C(N)=O` (racemic) [Compound I-257, Rac-trans-4-((2-acrylamidocyclohexyl)amino)-2-((5-((2-hydroxyethoxy)carbamoyl)-2-methylphenyl)amino)pyrimidine-5-carboxamide], > 1000 nM.
As for `C=CC(=O)N[C@@H]1CCCC[C@H]1Oc1nc(Nc2cc(C(N)=O)ccc2C)ncc1C(N)=O` (racemic) [Compound I-268, Rac-trans-4-((2-acrylamidocyclohexyl)oxy)-2-((5-carbamoyl-2-methylphenyl)amino)pyrimidine-5-carboxamide], the figure is > 1000 nM; as for `C=CC(=O)N[C@@H]1CCCC[C@H]1Oc1nc(Nc2cc(C(=O)NOC)ccc2C)ncc1C(N)=O` (racemic) [Compound I-269, Rac-trans-4-((2-acrylamidocyclohexyl)oxy)-2-((5-(methoxycarbamoyl)-2-methylphenyl)amino)pyrimidine-5-carboxamide], > 1000 nM.
For `C=CC(=O)N[C@@H]1CCCC[C@H]1Oc1nc(Nc2cc(C(N)=O)ccc2C)ncc1Cl` (racemic) [Compound I-270, Rac-trans-3-((4-((2-acrylamidocyclohexyl)oxy)-5-chloropyrimidin-2-yl)amino)-4-methylbenzamide], the IC50 is > 1000 nM.
As for `C=CC(=O)Nc1ccccc1Nc1nc(N[C@H]2CC[C@H](O)CC2)ncc1C(F)(F)F` [Compound I-1, Trans-N-(2-((2-((4-hydroxycyclohexyl)amino)-5-(trifluoromethyl)pyrimidin-4-yl)amino)phenyl)acrylamide], the IC50 lay within 101 to 500 nM.
With `C=CC(=O)Nc1ccccc1Nc1nc(N[C@H]2CC[C@H](C(N)=O)CC2)ncc1C(F)(F)F` [Compound I-16, 4-((4-((2-acrylamidophenyl)amino)-5-(trifluoromethyl)pyrimidin-2-yl)amino)-trans-cyclohexanecarboxamide] the figure was 101 to 500 nM; with `C=CC(=O)Nc1ccccc1Nc1nc(N[C@H]2CCCN(C(=O)C(C)=O)C2)ncc1C(F)(F)F` [Compound I-49, (S)—N-(2-((2-((1-(2-Oxopropanoyl)piperidin-3-yl)amino)-5-(trifluoromethyl)pyrimidin-4-yl)amino)phenyl)acrylamide], 501 to 999 nM.
Turning to `C=CC(=O)Nc1ccccc1Nc1nc(N[C@H]2CCCN(C(=O)[C@@H](O)CO)C2)ncc1C(F)(F)F` [Compound I-50, N-(2-((2-(((S)-1-((S)-2,3-Dihydroxypropanoyl)piperidin-3-yl)amino)-5-(trifluoromethyl)pyrimidin-4-yl)amino)phenyl)acrylamide], the IC50 fell in the range of 101 to 500 nM.
With `C=CC(=O)Nc1ccccc1Nc1nc(N[C@H]2CCCN(C(=O)[C@H](O)CO)C2)ncc1C(F)(F)F` [Compound I-51, N-(2-((2-(((S)-1-((R)-2,3-Dihydroxypropanoyl)piperidin-3-yl)amino)-5-(trifluoromethyl)pyrimidin-4-yl)amino)phenyl)acrylamide] the figure was 101 to 500 nM.
For `C=CC(=O)Nc1ccccc1Nc1nc(Nc2cc(C(=O)O)ccc2C)ncc1C(F)(F)F` [Compound I-78, 3-((4-((2-Acrylamidophenyl)amino)-5-(trifluoromethyl)pyrimidin-2-yl)amino)-4-methylbenzoic acid], the IC50 lay in the range of 501 to 999 nM.
With `C=C(C)S(=O)(=O)Nc1ccccc1Nc1nc(Nc2cc(C(C)=O)ccc2C)ncc1C(F)(F)F` [Compound I-97, N-(2-((2-((5-acetyl-2-methylphenyl)amino)-5-(trifluoromethyl)pyrimidin-4-yl)amino)phenyl)prop-1-ene-2-sulfonamide] the figure was 501 to 999 nM; with `C=CC(=O)Nc1ccccc1Nc1nc(N[C@H]2CC[C@H](OC)CC2)ncc1Cl` [Compound I-100], 101 to 500 nM.
Regarding `C=CC(=O)Nc1ccccc1Nc1nc(N[C@H]2CC[C@H](O)CC2)ncc1Cl` [Compound I-101], the IC50 is 101 to 500 nM.
As for `C=CC(=O)N(C)c1ccccc1Nc1nc(N[C@H]2CC[C@H](O)CC2)ncc1Cl` [Compound I-104, N-(2-((5-chloro-2-(trans-(4-hydroxycyclohexyl)amino)pyrimidin-4-yl)amino)phenyl)-N-methylacrylamide], the figure is 501 to 999 nM; as for `C=CC(=O)Nc1ccccc1Nc1nc(N[C@H]2CC[C@@H](O)CC2)ncc1C(F)(F)F` [Compound I-109, N-(2-((2-(cis-(4-hydroxycyclohexyl)amino)-5-(trifluoromethyl)pyrimidin-4-yl)amino)phenyl)acrylamide], 501 to 999 nM.
Regarding `C=CC(=O)Nc1ccccc1Nc1nc(N[C@@H]2CCCN(C(C)=O)C2)ncc1Cl` [Compound I-128, (R)—N-(2-((2-((1-acetylpiperidin-3-yl)amino)-5-chloropyrimidin-4-yl)amino)phenyl)acrylamide], the IC50 fell in the range of 101 to 500 nM.
As for `C=CC(=O)Nc1ccccc1Nc1nc(N[C@H]2CC[C@H](C(N)=O)CC2)ncc1Cl` [Compound I-129, trans-4-((4-((2-acrylamidophenyl)amino)-5-chloropyrimidin-2-yl)amino)-cyclohexanecarboxamide], the figure is 101 to 500 nM; as for `C=CC(=O)Nc1ccccc1Nc1nc(Nc2ccc(N3CCNCC3)cc2OC(F)F)ncc1Cl` [Compound I-142, N-(2-((5-chloro-2-((2-(difluoromethoxy)-4-(piperazin-1-yl)phenyl)amino)pyrimidin-4-yl)amino)phenyl)acrylamide], 101 to 500 nM; as for `C=CC(=O)Nc1cc(OC)ccc1Nc1nc(Nc2ccc(N3CCN(C(C)=O)CC3)cc2OC)ncc1Cl` [Compound I-152, N-(2-((2-((4-(4-acetylpiperazin-1-yl)-2-methoxyphenyl)amino)-5-chloropyrimidin-4-yl)amino)-5-methoxyphenyl)acrylamide], 501 to 999 nM.
With `C=CC(=O)Nc1cc(OC)ccc1Nc1nc(Nc2ccc(N3CCC[C@H]3CO)cc2C#N)ncc1Cl` [Compound I-163, (S)—N-(2-((5-chloro-2-((2-cyano-4-(2-(hydroxymethyl)pyrrolidin-1-yl)phenyl)amino)pyrimidin-4-yl)amino)-5-methoxyphenyl)acrylamide] the figure was 501 to 999 nM.
